SMILES strings stand for the structures. *1 amine or outer side, *2 acyl side, *3 side chain or, on linkers, in order; H or OH if unused. Where a SMILES comes first, the peptide text is derived from it. Side-chain parts run from the residue outwards. [ ]: non-standard residue; d: D form. The star is where a group is joined. γGlu = O=C(O)[C@H](CCC(=O)[*:2])N[*:1]; Stearoyl = CCCCCCCCCCCCCCCCCC(=O)*; Palmitoyl = CCCCCCCCCCCCCCCC(=O)*; Aib = CC(C)(N)C(=O)O

What all share (assay type): cell-based
Common to all, as to conditions: Table 7; cAMP formation
(In general: Cyclic AMP is a second messenger, typically raised through Gs and lowered through Gi signalling.)

Assay [1] addresses T1, human GLP-1 receptor (hGLP-1 R) (Homo sapiens, UniProt P43220).
T1 construct: expressed in transfected cells
The experiment in a line: cAMP response of HEK-293 cells stably expressing human GLP-1 receptor (HTRF). The method in brief:
(§1)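 Cells grown overnight in DMEM/10% FBS, detached with accutase, resuspended in HBSS with 20 mM HEPES, 0.1% BSA and 2 mM IBMX at 400000 cells/ml. Test compound added and incubated 30 minutes at room temperature; cellular cAMP then measured by HTRF.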

Assay [2] addresses T2, human GIP receptor (hGIP R) (Homo sapiens, UniProt P48546).
T2 construct: expressed in transfected cells
T2 sequence (P48546 22-466): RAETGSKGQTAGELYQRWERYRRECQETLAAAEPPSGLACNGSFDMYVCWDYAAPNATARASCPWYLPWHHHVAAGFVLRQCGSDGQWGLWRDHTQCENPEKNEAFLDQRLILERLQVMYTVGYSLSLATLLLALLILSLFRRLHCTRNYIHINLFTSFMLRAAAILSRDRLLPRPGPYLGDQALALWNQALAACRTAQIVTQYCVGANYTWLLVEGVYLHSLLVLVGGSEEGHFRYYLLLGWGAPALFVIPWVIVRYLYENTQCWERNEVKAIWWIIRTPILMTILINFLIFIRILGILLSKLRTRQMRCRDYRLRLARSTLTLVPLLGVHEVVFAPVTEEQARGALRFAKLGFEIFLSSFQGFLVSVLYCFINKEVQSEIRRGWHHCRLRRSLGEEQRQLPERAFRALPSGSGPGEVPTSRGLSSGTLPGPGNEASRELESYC
Briefly: cAMP response of HEK-293 cells stably expressing human GIP receptor (HTRF). As to the method:
cAMP content of cells was determined using a kit from Cisbio Corp. (cat. no. 62AM4PEC) based on HTRF (Homogenous Time Resolved Fluorescence). For preparation, cells were split into T175 culture flasks and grown overnight to near confluency in medium (DMEM/10% FBS). Medium was then removed and cells washed with PBS lacking calcium and magnesium, followed by proteinase treatment with accutase (Sigma-Aldrich cat. no. A6964). Detached cells were washed and resuspended in assay buffer (1×HBSS; 20 mM HEPES, 0.1% BSA, 2 mM IBMX) and cellular density determined. They were then diluted to 400000 cells/ml and 25 μl-aliquots dispensed into the wells of 96-well plates. For measurement, 25 μl of test compound in assay buffer was added to the wells, followed by incubation for 30 minutes at room temperature.
In general terms: Time-resolved FRET reads energy transfer from a long-lived donor to a nearby acceptor.

For assay [3], the target named is T3, human glucagon receptor (hGLUC R) (Homo sapiens, UniProt P47871).
T3 construct: expressed in transfected cells
T3 sequence (P47871 26-477): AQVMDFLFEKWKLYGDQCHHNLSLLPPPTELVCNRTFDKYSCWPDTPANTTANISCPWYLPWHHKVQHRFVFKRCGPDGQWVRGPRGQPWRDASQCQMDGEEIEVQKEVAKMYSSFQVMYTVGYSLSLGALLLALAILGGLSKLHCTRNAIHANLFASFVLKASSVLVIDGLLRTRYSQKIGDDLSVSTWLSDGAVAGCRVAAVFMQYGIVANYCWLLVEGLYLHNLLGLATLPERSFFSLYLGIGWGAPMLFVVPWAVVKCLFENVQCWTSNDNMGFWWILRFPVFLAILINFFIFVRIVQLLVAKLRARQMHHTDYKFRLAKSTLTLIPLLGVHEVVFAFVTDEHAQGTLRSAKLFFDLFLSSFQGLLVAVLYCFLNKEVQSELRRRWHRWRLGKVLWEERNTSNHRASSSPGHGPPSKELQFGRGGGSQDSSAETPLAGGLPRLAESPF
Briefly: cAMP response of HEK-293 cells stably expressing human glucagon receptor (HTRF). In short, it runs like this: as §1

T1 sequence (P43220 24-463): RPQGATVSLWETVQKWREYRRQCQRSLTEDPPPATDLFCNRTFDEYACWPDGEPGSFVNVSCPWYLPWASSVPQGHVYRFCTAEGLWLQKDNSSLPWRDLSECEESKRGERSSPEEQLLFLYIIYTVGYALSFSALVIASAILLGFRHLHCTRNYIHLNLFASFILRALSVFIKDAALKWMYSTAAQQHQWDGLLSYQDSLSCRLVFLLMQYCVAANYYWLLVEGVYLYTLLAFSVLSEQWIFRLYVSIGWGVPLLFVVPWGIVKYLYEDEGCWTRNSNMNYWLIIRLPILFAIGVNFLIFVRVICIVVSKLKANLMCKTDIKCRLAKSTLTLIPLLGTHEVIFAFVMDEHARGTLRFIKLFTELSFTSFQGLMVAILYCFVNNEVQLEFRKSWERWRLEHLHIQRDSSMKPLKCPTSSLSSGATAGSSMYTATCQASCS

For orientation: EC50 means the midpoint of the concentration-response curve. Low readings indicate a more potent agent, high ones a less potent agent. On to `CCCCCCCCCCCCCCCC(=O)N[C@@H](CCC(=O)NCCCC[C@H](NC(=O)[C@H](CCC(N)=O)NC(=O)[C@@H](NC(=O)[C@H](CO)NC(=O)[C@H](CC(C)C)NC(=O)[C@H](CC(=O)O)NC(=O)[C@H](CO)NC(=O)[C@@H](NC(=O)[C@H](Cc1ccccc1)NC(=O)[C@@H](NC(=O)CNC(=O)[C@H](CCC(N)=O)NC(=O)C(C)(C)NC(=O)[C@@H](N)Cc1ccc(O)cc1)[C@@H](C)O)[C@@H](C)O)[C@@H](C)CC)C(=O)N[C@@H](CCC(=O)O)C(=O)N[C@@H](CCC(N)=O)C(=O)N[C@@H](CCCNC(=N)N)C(=O)N[C@@H](C)C(=O)N[C@@H](C)C(=O)NC(C)(C)C(=O)N[C@@H](CCC(=O)O)C(=O)N[C@@H](Cc1ccccc1)C(=O)N[C@H](C(=O)N[C@@H](CCC(=O)O)C(=O)N[C@@H](Cc1c[nH]c2ccccc12)C(=O)N[C@@H](CC(C)C)C(=O)N[C@@H](CCCCN)C(=O)N[C@@H](CC(N)=O)C(=O)N[C@H](C(=O)NCC(=O)N1CCC[C@H]1C(=O)N[C@@H](CO)C(=O)N[C@@H](CO)C(=O)NCC(=O)N[C@@H](C)C(=O)N1CCC[C@H]1C(=O)N1CCC[C@H]1C(=O)N1CCC[C@H]1C(=O)N[C@@H](CO)C(N)=O)[C@@H](C)O)[C@@H](C)CC)C(=O)O` [SEQ ID NO: 15, Y-Aib-Q-G-T-F-T-S-D-L-S-I-Q-K(yE-x53)-E-Q- R-A-A-Aib-E-F-I-E-W-L-K-N-T-G-P-S-S-G-A-P-P-P-S-NH2] (H-Y[Aib]QGTFTSDLSIQK([γGlu-Palmitoyl])EQRAA[Aib]EFIEWLKNTGPSSGAPPPS-NH2), for which the EC50 in assay [1] came to 0.0069 nM; in assay [2] it was 0.0114 nM; in assay [3] it was 0.054 nM.

For the compound `CCCCCCCCCCCCCCCCCC(=O)N[C@@H](CCC(=O)NCCCC[C@H](NC(=O)[C@H](CCC(N)=O)NC(=O)[C@@H](NC(=O)[C@H](CO)NC(=O)[C@H](CC(C)C)NC(=O)[C@H](CC(=O)O)NC(=O)[C@H](CO)NC(=O)[C@@H](NC(=O)[C@H](Cc1ccccc1)NC(=O)[C@@H](NC(=O)CNC(=O)[C@H](CCC(=O)O)NC(=O)C(C)(C)NC(=O)[C@@H](N)Cc1ccc(O)cc1)[C@@H](C)O)[C@@H](C)O)[C@@H](C)CC)C(=O)N[C@@H](CCC(=O)O)C(=O)N[C@@H](CO)C(=O)N[C@@H](CCCCN)C(=O)N[C@@H](C)C(=O)N[C@@H](C)C(=O)NC(C)(C)C(=O)N[C@@H](CCC(=O)O)C(=O)N[C@@H](Cc1ccccc1)C(=O)N[C@H](C(=O)N[C@@H](CCC(=O)O)C(=O)N[C@@H](Cc1c[nH]c2ccccc12)C(=O)N[C@@H](CC(C)C)C(=O)N[C@@H](CCCCN)C(=O)N[C@@H](C)C(=O)NCC(=O)NCC(=O)N1CCC[C@H]1C(=O)N[C@@H](CO)C(=O)N[C@@H](CO)C(=O)NCC(=O)N[C@@H](C)C(=O)N1CCC[C@H]1C(=O)N1CCC[C@H]1C(=O)N1CCC[C@H]1C(=O)N[C@@H](CO)C(=O)N[C@@H](CCCCN)C(N)=O)[C@@H](C)CC)C(=O)O` [SEQ ID NO: 16, Y-Aib-E-G-T-F-T-S-D-L-S-I-Q-K(yE-x70)-E-S-K-A-A-Aib-EFIEWLKAGGPSSGAPPPSK-NH2] (H-Y[Aib]EGTFTSDLSIQK([γGlu-Stearoyl])ESKAA[Aib]EFIEWLKAGGPSSGAPPPSK-NH2), the EC50 in assay [1] worked out at 0.007 nM; in assay [2], 0.0156 nM; in assay [3], 17 nM.

As for `CCCCCCCCCCCCCCCC(=O)N[C@@H](CCC(=O)NCCCC[C@H](NC(=O)[C@H](CCC(N)=O)NC(=O)[C@@H](NC(=O)[C@H](CO)NC(=O)[C@H](CC(C)C)NC(=O)[C@H](CC(=O)O)NC(=O)[C@H](CO)NC(=O)[C@@H](NC(=O)[C@H](Cc1ccccc1)NC(=O)[C@@H](NC(=O)CNC(=O)[C@H](CCC(N)=O)NC(=O)C(C)(C)NC(=O)[C@@H](N)Cc1ccc(O)cc1)[C@@H](C)O)[C@@H](C)O)[C@@H](C)CC)C(=O)N[C@@H](CCC(=O)O)C(=O)N[C@@H](CCCCN)C(=O)N[C@@H](CCCNC(=N)N)C(=O)N[C@@H](CC(C)C)C(=O)N[C@@H](C)C(=O)NC(C)(C)C(=O)N[C@@H](CCC(=O)O)C(=O)N[C@@H](Cc1ccccc1)C(=O)N[C@H](C(=O)N[C@@H](CCC(=O)O)C(=O)N[C@@H](Cc1c[nH]c2ccccc12)C(=O)N[C@@H](CC(C)C)C(=O)N[C@@H](CCCCN)C(=O)N[C@@H](CC(N)=O)C(=O)N[C@H](C(=O)NCC(=O)N1CCC[C@H]1C(=O)N[C@@H](CO)C(=O)N[C@@H](CO)C(=O)NCC(=O)N[C@@H](C)C(=O)N1CCC[C@H]1C(=O)N1CCC[C@H]1C(=O)N1CCC[C@H]1C(=O)N[C@@H](CO)C(N)=O)[C@@H](C)O)[C@@H](C)CC)C(=O)O` [SEQ ID NO: 19, Y-Aib-Q-G-T-F-T-S-D-L-S-I-Q-K(yE-x53)-E-K-R-L-A-Aib-E-F-I-E-W-L-K-N-T-G-P-S-S-G-A-P-P-P-S-NH2] (H-Y[Aib]QGTFTSDLSIQK([γGlu-Palmitoyl])EKRLA[Aib]EFIEWLKNTGPSSGAPPPS-NH2), the EC50 in assay [1] worked out at 0.0085 nM; in assay [2] it was 0.0915 nM; in assay [3] it was 0.137 nM.

For `CCCCCCCCCCCCCCCC(=O)N[C@@H](CCC(=O)NCCCC[C@H](NC(=O)[C@H](CCC(N)=O)NC(=O)[C@@H](NC(=O)[C@H](CO)NC(=O)[C@H](CC(C)C)NC(=O)[C@H](CC(=O)O)NC(=O)[C@H](CO)NC(=O)[C@@H](NC(=O)[C@H](Cc1ccccc1)NC(=O)[C@@H](NC(=O)CNC(=O)[C@H](CCC(=O)O)NC(=O)C(C)(C)NC(=O)[C@@H](N)Cc1ccc(O)cc1)[C@@H](C)O)[C@@H](C)O)[C@@H](C)CC)C(=O)N[C@@H](CCC(=O)O)C(=O)N[C@@H](CCCCN)C(=O)N[C@@H](CCCNC(=N)N)C(=O)N[C@@H](C)C(=O)N[C@@H](C)C(=O)NC(C)(C)C(=O)N[C@@H](CCC(=O)O)C(=O)N[C@@H](Cc1ccccc1)C(=O)N[C@H](C(=O)N[C@@H](CCC(=O)O)C(=O)N[C@@H](Cc1c[nH]c2ccccc12)C(=O)N[C@@H](CC(C)C)C(=O)N[C@@H](CCCCN)C(=O)N[C@@H](CCCNC(=N)N)C(=O)N[C@@H](C)C(=O)NCC(=O)N1CCC[C@H]1C(=O)N[C@@H](CO)C(=O)N[C@@H](CO)C(=O)NCC(=O)N[C@@H](C)C(=O)N1CCC[C@H]1C(=O)N1CCC[C@H]1C(=O)N1CCC[C@H]1C(=O)N[C@@H](CO)C(N)=O)[C@@H](C)CC)C(=O)O` [SEQ ID NO: 20, Y-Aib-E-G-T-F-T-S-D-L-S-I-Q-K(yE-x53)-E-K-R-A-A-Aib-E-F-I-E-W-L-K- R-A-G-P-S-S-G-A-P-P-P-S-NH2] (H-Y[Aib]EGTFTSDLSIQK([γGlu-Palmitoyl])EKRAA[Aib]EFIEWLKRAGPSSGAPPPS-NH2), the EC50 in assay [1] was 0.0082 nM; in assay [2] it was 0.0163 nM; in assay [3], 18.2 nM.

Source of the values: patent publication US20140213513A1 (Sanofi, priority 2012, published 2014).
